What follows are compounds tested against T1, human recombinant LPA2 expressed in CHO cells (Homo sapiens, UniProt Q9HBW0) (assay: FLIPR calcium mobilization assay, LPA2 antagonism in CHO-hLPA2 cells). Settings: CHO-hLPA2 cells, inhibition of LPA EC80 Ca2+ response, 30 min pre-incubation; read-out: LPA2 IC50.
T1 construct: expressed in transfected cells; host or cells: CHO (CHO-hLPA2 cell line)
Type: cell-based
Description: The effectiveness of compounds of the present invention as LPA2 antagonist can be determined at the human recombinant LPA2 expressed in CHO cells, using a FLIPR assay in 384 well format.
CHO-hLPA2 cell lines are cultured in a humidified incubator at 5% CO2 in DMEM/F-12 (1:1) MIXTURE with 2 mM Glutamax, supplemented with 10% of Foetal Bovine Serum, 1 mM Sodium Pyruvate, 11 mM Hepes and 1× Penicillin/Streptomycin. CHO hLPA2 cells are seeded into black walled clear-bottom 384-well plates (#781091, Greiner Bio-One GmbH) at a density of 7,500 cells per well in 50 μl culture media and grown overnight in a 37° C. humidified CO2-incubator. Serial dilutions (1:3 or 1:4, 11 points CRC) of compounds are performed in 100% DMSO at 200× the final concentration. The compounds are diluted 1:50 prior to the experiment with Assay Buffer (20 mM HEPES, 145 mM NaCl, 5 mM KCl, 5.5 mM glucose, 1 mM MgCl2 and 2 mM CaCl2, pH 7.4 containing 0.01% Pluronic F-127) to obtain a solution corresponding to […] the final concentration in the assay (4×, 2% DMSO). The final concentration of DMSO in the assay will be 0.5% in each well. Medium is removed by aspiration and cells are then incubated with 30 μl of a loading solution containing 5 μM of the cytoplasmic Ca2+ indicator Cal-520 AM in Assay Buffer containing 2.5 mM probenecid for 30 min at 37° C. incubator (cell loading). The loaded cell plates are transferred into the FLIPR instrument and calcium responses are monitored during the on-line addition protocols. For testing of compounds, after the cell loading, 10 μl/well of 4× antagonists' solution was added onto the cells. […] Intracellular peak fluorescence values subtracted by baseline fluorescence are exported and analysed to determine IC50 values, respectively. The calcium response is expressed as percentage of the maximal inhibition of the EC80 agonist response.
The raw data (peak height expressed as relative fluorescence units) are normalized and transformed into “percent of inhibition”. Curve fitting and pIC50 (−Log IC50) estimations are carried out using a four-parameter logistic model using XLfit Software.

T1 sequence (Q9HBW0 whole entry): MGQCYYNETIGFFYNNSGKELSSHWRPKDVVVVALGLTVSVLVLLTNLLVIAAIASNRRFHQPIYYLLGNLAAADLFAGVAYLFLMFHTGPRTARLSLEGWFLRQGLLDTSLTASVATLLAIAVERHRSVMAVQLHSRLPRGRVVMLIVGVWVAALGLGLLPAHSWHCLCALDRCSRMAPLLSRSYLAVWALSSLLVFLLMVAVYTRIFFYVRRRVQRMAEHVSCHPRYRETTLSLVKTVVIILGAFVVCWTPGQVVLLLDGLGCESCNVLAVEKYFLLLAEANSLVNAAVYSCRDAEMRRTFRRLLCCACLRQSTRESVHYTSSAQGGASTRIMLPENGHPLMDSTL

Row | Structure (SMILES) | IC50 [nM]
1 | COC(=O)Nc1nc(C)c(S(=O)(=O)N2CCN(C[C@H](C)Nc3ncnc4c(C(=O)N5CCC[C@H]5C(F)(F)F)cccc34)CC2)s1 (racemic) [Example 84, methyl N-[4-methyl-5-({4-[(2S)-2-({8-[(2S)-2-(trifluoromethyl)pyrrolidine-1-carbonyl]quinazolin-4-yl}amino)propyl]piperazin-1-yl}sulfonyl)-1,3-thiazol-2-yl]carbamate] | < 1000
2 | Cc1noc(-c2ccc(S(=O)(=O)N3CCN(C[C@H](C)Nc4ncnc5c(OC(F)F)cccc45)CC3)s2)c1C [Example 4, 8-(difluoromethoxy)-N-[(2S)-1-(4-{[5-(3,4-dimethyl-1,2-oxazol-5-yl)thiophen-2-yl]sulfonyl}piperazin-1-yl)propan-2-yl]quinazolin-4-amine] | 10 to 100
3 | C[C@@H](CN1CCN(S(=O)(=O)c2ccc(Cl)c(Cl)c2)CC1)Nc1ncnc2c(Cl)cccc12 [Example 6, 8-chloro-N-[(2S)-1-[4-(3,4-dichlorobenzenesulfonyl)piperazin-1-yl]propan-2-yl]quinazolin-4-amine] | < 1000
4 | COC(=O)Nc1nc(C)c(S(=O)(=O)N2CCN(C[C@H](C)Nc3nc(C(F)(F)F)nc4ccccc34)CC2)s1 [Example 11, methyl N-[4-methyl-5-({4-[(2S)-2-{[2-(trifluoromethyl)quinazolin-4-yl]amino}propyl]piperazin-1-yl}sulfonyl)-1,3-thiazol-2-yl]carbamate] | < 1000
5 | COC(=O)c1cccc2c(N[C@@H](C)CN3CCN(S(=O)(=O)c4cnc(-c5ccccc5)s4)CC3)ncnc12 [Example 12, methyl 4-{[(2S)-1-{4-[(2-phenyl-1,3-thiazol-5-yl)sulfonyl]piperazin-1-yl}propan-2-yl]amino}quinazoline-8-carboxylate] | 10 to 100
6 | CC(=O)Nc1ncc(S(=O)(=O)N2CCN(C[C@H](C)Nc3nc(C)nc4c(C(F)(F)F)cccc34)CC2)s1 [Example 13, N-[5-({4-[(2S)-2-{[2-methyl-8-(trifluoromethyl)quinazolin-4-yl]amino}propyl]piperazin-1-yl}sulfonyl)-1,3-thiazol-2-yl]acetamide] | 10 to 100
7 | COC(=O)Nc1nc(C)c(S(=O)(=O)N2CCN(C[C@H](C)Nc3nc(C4CC4)nc4ccccc34)CC2)s1 [Example 15, methyl N-[5-({4-[(2S)-2-[(2-cyclopropylquinazolin-4-yl)amino]propyl]piperazin-1-yl}sulfonyl)-4-methyl-1,3-thiazol-2-yl]carbamate] | < 1000
8 | COC(=O)c1cccc2c(N[C@@H](C)CN3CCN(S(=O)(=O)c4ccc(-c5ccno5)s4)CC3)ncnc12 [Example 16, methyl 4-{[(2S)-1-(4-{[5-(1,2-oxazol-5-yl)thiophen-2-yl]sulfonyl}piperazin-1-yl)propan-2-yl]amino}quinazoline-8-carboxylate] | 10 to 100
9 | COC(=O)Nc1nc(C)c(S(=O)(=O)N2CCN(C[C@H](C)Nc3ncnc4c(C(=O)OC)cccc34)CC2)s1 [Example 17, methyl 4-{[(2S)-1-[4-({2-[(methoxycarbonyl)amino]-4-methyl-1,3-thiazol-5-yl}sulfonyl)piperazin-1-yl]propan-2-yl]amino}quinazoline-8-carboxylate] | 10 to 100
10 | COC(=O)Nc1nc(C)c(S(=O)(=O)N2CCN(C[C@H](C)Nc3nc(C4CC4)nc4c(C)cccc34)CC2)s1 [Example 18, methyl N-[5-({4-[(2S)-2-[(2-cyclopropyl-8-methylquinazolin-4-yl)amino]propyl]piperazin-1-yl}sulfonyl)-4-methyl-1,3-thiazol-2-yl]carbamate] | 10 to 100

Other lines, results leading:

Row | IC50 [nM] | Structure (SMILES)
11 | < 10 | Cc1noc(-c2ccc(S(=O)(=O)N3CCN(C[C@H](C)Nc4ncnc5c(C(=O)N6CCC[C@H]6C(F)(F)F)cccc45)CC3)s2)c1C (racemic) [Example 69, N-[(2S)-1-(4-{[5-(3,4-dimethyl-1,2-oxazol-5-yl)thiophen-2-yl]sulfonyl}piperazin-1-yl)propan-2-yl]-8-[(2S)-2-(trifluoromethyl)pyrrolidine-1-carbonyl]quinazolin-4-amine]
12 | < 10 | Cc1noc(-c2ccc(S(=O)(=O)N3CCN(C[C@H](C)Nc4ncnc5c(C(=O)N6CCC[C@@H]6C(F)(F)F)cccc45)CC3)s2)c1C (racemic) [Example 76, N-[(2S)-1-(4-{[5-(3,4-dimethyl-1,2-oxazol-5-yl)thiophen-2-yl]sulfonyl}piperazin-1-yl)propan-2-yl]-8-[(2R)-2-(trifluoromethyl)pyrrolidine-1-carbonyl]quinazolin-4-amine]
13 | 10 to 100 | COC(=O)Nc1nc(C)c(S(=O)(=O)N2CCN(C[C@H](C)Nc3ncnc4c(C(=O)N5CCC[C@@H]5C(F)(F)F)cccc34)CC2)s1 (racemic) [Example 79, methyl N-[4-methyl-5-({4-[(2S)-2-({8-[(2R)-2-(trifluoromethyl)pyrrolidine-1-carbonyl]quinazolin-4-yl}amino)propyl]piperazin-1-yl}sulfonyl)-1,3-thiazol-2-yl]carbamate]
14 | 10 to 100 | COC(=O)Nc1nc(C)c(S(=O)(=O)N2CCN(C[C@H](C)Nc3ncnc4c(C(=O)N5CCC[C@@H]5C)cccc34)CC2)s1 (racemic) [Example 82, methyl N-[4-methyl-5-({4-[(2S)-2-({8-[(2S)-2-methylpyrrolidine-1-carbonyl]quinazolin-4-yl}amino)propyl]piperazin-1-yl}sulfonyl)-1,3-thiazol-2-yl]carbamate]
15 | < 10 | Cc1noc(-c2ccc(S(=O)(=O)N3CCN(C[C@H](C)Nc4ncnc5c(C(=O)N6CC7CC7C6)cccc45)CC3)s2)c1C (mixture of isomers) [Example 85, 8-{3-azabicyclo[3.1.0]hexane-3-carbonyl}-N-[(2S)-1-(4-{[5-(3,4-dimethyl-1,2-oxazol-5-yl)thiophen-2-yl]sulfonyl}piperazin-1-yl)propan-2-yl]quinazolin-4-amine]
16 | < 10 | Cc1noc(-c2ccc(S(=O)(=O)N3CCN(C[C@H](C)Nc4ncnc5c(C(=O)N6CCC[C@@H]6C)cccc45)CC3)s2)c1C (racemic) [Example 86, N-[(2S)-1-(4-{[5-(3,4-dimethyl-1,2-oxazol-5-yl)thiophen-2-yl]sulfonyl}piperazin-1-yl)propan-2-yl]-8-[(2S)-2-methylpyrrolidine-1-carbonyl]quinazolin-4-amine]
17 | 10 to 100 | COC(=O)Nc1nc(C)c(S(=O)(=O)N2CCN(C[C@H](C)Nc3ncnc4c(C(=O)N5CC6CC6C5)cccc34)CC2)s1 (mixture of isomers) [Example 87, methyl N-[5-({4-[(2S)-2-[(8-{3-azabicyclo[3.1.0]hexane-3-carbonyl}quinazolin-4-yl)amino]propyl]piperazin-1-yl}sulfonyl)-4-methyl-1,3-thiazol-2-yl]carbamate]
18 | 10 to 100 | COC(=O)Nc1nc(C)c(S(=O)(=O)N2CCN(C[C@H](C)Nc3nc(C)nc4c(C(F)(F)F)cccc34)CC2)s1 [Example 2, methyl N-[4-methyl-5-({4-[(2S)-2-{[2-methyl-8-(trifluoromethyl)quinazolin-4-yl]amino}propyl]piperazin-1-yl}sulfonyl)-1,3-thiazol-2-yl]carbamate]
19 | 10 to 100 | COC(=O)Nc1nc(C)c(S(=O)(=O)N2CCN(C[C@H](C)Nc3ncnc4c(OC(F)(F)F)cccc34)CC2)s1 [Example 3, Methyl N-[4-methyl-5-({4-[(2S)-2-{[8-(trifluoromethoxy)quinazolin-4-yl]amino}propyl]piperazin-1-yl}sulfonyl)-1,3-thiazol-2-yl]carbamate]
